Test results from patent EP3072514A1, “Novel oral anticoagulants (NOACs) for preventing development and aggravation of atrial fibrillation” (Université Pierre et Marie Curie - Paris 6 (UPMC), priority 2015, dated 2016).

Legend:
Type in all cases: in vivo, Male OFA Sprague-dawley rats
blood coagulation = experiment: Thrombin time (TT) on blood collected by cardiac puncture at sacrifice of I/R rats; settings: subcutaneous osmotic minipump, with reference to the mean value of sham animals
Text: • Figure 1 is a combination of two graphs showing left atrium (LA) area after one month of treatment with DTI Dabigatran (A) or S35792 (B). Vehicle (V) is 60% H2O/40% PEG 300 for dabigatran and saline for S35972. Treatment of rats started just after thoracotomy without (Sham) or with occlusion of left coronary artery followed by reperfusion (I/R). […] Vehicle (V) is 60% H2O/40% PEG 300 for dabigatran and saline for S35972. Treatment of rats started just after thoracotomy without (Sham) or with occlusion of left coronary artery followed by reperfusion (I/R). Results are presented as mean +/- S.E.M. * P<0.05; ** P<0.001, *** P<0.001 vs Sham; #P<0.05 vs untreated I/R. • Figure 3 is a combination of two graphs showing thrombin time (TT), which reflects anticoagulant activity, and plasma concentrations of Dabigatran (A) and S35792 (B) in rats after throracotomy with occlusion of left coronary artery followed by reperfusion (I/R). Vehicle (V) is 60% H2O/40% PEG 300 for dabigatran and saline for S35972. […] DTI plasma levels are quantified using LC-MS/MS. TT are expressed as mean +/- S.E.M with reference to the mean value of sham animals that underwent thoracotomy only. *** P<0.001 vs untreated I/R. • Figure 4 is a combination of three graphs showing left atrium (LA) area (A) and diameter (B) and left ventricle end-diastolic (LVED) diameter (C) after two months of treatment with S35972. […] LA area was measured by bidimensional echocardiography. LA and LVED diameters were measured in time-motion mode. […] AF duration is measured as the time between the end of the electric stimulation and the return to sinusoidal rhythm. […] Expression of mRNA was measured with real-time qPCR. […] Expression of mRNA was measured with real-time qPCR. […] Expression of mRNA was measured with real-time qPCR. […] LA area was measured by bidimensional echocardiography. LVED and LA diameters were measured in time-motion mode. […] AF duration is measured as the time between the end of the electric stimulation and return to sinusoidal rhythm. […]

[1] = system: rats with occlusion of left coronary artery followed by reperfusion (I/R); experiment: Echocardiographic evaluation of left atrium and left ventricle in rats after ischemia/reperfusion (I/R)
Text: • Figure 1 is a combination of two graphs showing left atrium (LA) area after one month of treatment with DTI Dabigatran (A) or S35792 (B). Vehicle (V) is 60% H2O/40% PEG 300 for dabigatran and saline for S35972. Treatment of rats started just after thoracotomy without (Sham) or with occlusion of left coronary artery followed by reperfusion (I/R). […] Vehicle (V) is 60% H2O/40% PEG 300 for dabigatran and saline for S35972. Treatment of rats started just after thoracotomy without (Sham) or with occlusion of left coronary artery followed by reperfusion (I/R). Results are presented as mean +/- S.E.M. * P<0.05; ** P<0.001, *** P<0.001 vs Sham; #P<0.05 vs untreated I/R. • Figure 3 is a combination of two graphs showing thrombin time (TT), which reflects anticoagulant activity, and plasma concentrations of Dabigatran (A) and S35792 (B) in rats after throracotomy with occlusion of left coronary artery followed by reperfusion (I/R). Vehicle (V) is 60% H2O/40% PEG 300 for dabigatran and saline for S35972. Tests were carried out on blood collected by cardiac puncture at sacrifice (i.e. for Dabigatran, 90 minutes after last oral administration). DTI plasma levels are quantified using LC-MS/MS. TT are expressed as mean +/- S.E.M with reference to the mean value of sham animals that underwent thoracotomy only. *** P<0.001 vs untreated I/R. • Figure 4 is a combination of three graphs showing left atrium (LA) area (A) and diameter (B) and left ventricle end-diastolic (LVED) diameter (C) after two months of treatment with S35972. Treatment of rats started just after thoracotomy without (Sham) or with occlusion of left coronary artery followed by reperfusion (I/R). LA area was measured by bidimensional echocardiography. LA and LVED diameters were measured in time-motion mode. Results are presented as mean +/- S.E.M. *P<0.05, **P<0.01 and *** P<0.001 vs Sham; ^#P<0.05 ^###P<0.001 vs untreated I/R. • Figure 5 is a graph showing the impact of S35972 administration during two months on the duration of an episode of AF in rats undergone thoracotomy without (Sham) or with occlusion of left coronary artery followed by reperfusion (I/R). AF duration is measured as the time between the end of the electric stimulation and the return to sinusoidal rhythm. […] Rats undergone thoracotomy without (Sham) or with occlusion of left coronary artery followed by reperfusion (I/R). Expression of mRNA was measured with real-time qPCR. […] Treatment of rats started one month post thoracotomy without (Sham) or with occlusion of left coronary artery followed by reperfusion (I/R). LA area was measured by bidimensional echocardiography. LVED and LA diameters were measured in time-motion mode. […] Rats undergone thoracotomy without (Sham) or with occlusion of left coronary artery followed by reperfusion (I/R). AF duration is measured as the time between the end of the electric stimulation and return to sinusoidal rhythm. Results are presented as mean +/- S.E.M.
Animals were anesthetized with 30 mg/kg sodium pentobarbital, and then intubated and ventilated at 60 respirations/min while body temperature was maintained at 37°C. Rats underwent thoracotomy and their left coronary artery was either left intact (Sham) or occluded with a 4.0 silk suture at 1 mm from the artery origin. Ischemia was maintained for 30 min and the clamp was removed to initiate a definitive reperfusion phase. […]

paroxysmal AF = experiment: Duration of an AF episode induced by rapid stimulation of the left atrium with an esophageal electrode in I/R rats; settings: 6 mg/kg/day
Text: • Figure 1 is a combination of two graphs showing left atrium (LA) area after one month of treatment with DTI Dabigatran (A) or S35792 (B). Vehicle (V) is 60% H2O/40% PEG 300 for dabigatran and saline for S35972. Treatment of rats started just after thoracotomy without (Sham) or with occlusion of left coronary artery followed by reperfusion (I/R). Results are presented as mean +/- S.E.M, *P<0.05, **P<0.01 and *** P<0.001 vs Sham; ^##P<0.01 and ^###P<0.001 vs untreated I/R. • Figure 2 is a combination of graphs showing left ventricular end-diastolic (LVED) diameter and fractional shortening (FS) after one month of treatment with Dabigatran (A) or S35792 (B). […] DTI plasma levels are quantified using LC-MS/MS. TT are expressed as mean +/- S.E.M with reference to the mean value of sham animals that underwent thoracotomy only. *** P<0.001 vs untreated I/R. • Figure 4 is a combination of three graphs showing left atrium (LA) area (A) and diameter (B) and left ventricle end-diastolic (LVED) diameter (C) after two months of treatment with S35972. […] LA area was measured by bidimensional echocardiography. LA and LVED diameters were measured in time-motion mode. […] AF duration is measured as the time between the end of the electric stimulation and the return to sinusoidal rhythm. […] Expression of mRNA was measured with real-time qPCR. […] Expression of mRNA was measured with real-time qPCR. […]

[2] = 6 mg/kg/d during one month, treatment started one month after the I/R episode
[3] = 6 mg/kg/day for 8 weeks, started just after I/R
[4] = four weeks post-I/R, one month of treatment started just after I/R

4-oxo-3-(2-pyridin-2-ylethylamino)-4,6,7,8-tetrahydro-pyrrolo[1,2-a]pyrazine-6-carboxylic acid 2-ethylcarbamoyl methoxy-benzylamide [S35972]
thrombin time increases by a factor (blood coagulation; 3 mg/kg/day): 3 | thrombin time increases by a factor (blood coagulation; 6 mg/kg/day): 3 | left atrium area ([1]; 3 mg/kg/day for 8 weeks, started just after I/R): decreases the left atrium area | left atrium diameter [1, 2]: decreased to an intermediate value between Sham and I/R rats | left ventricle end-diastolic diameter [1, 2]: had no effect | left atrium area ([1]; 6 mg/kg/d during one month, treatment started one month after the I/R episode (established atrial dilatation)): significantly reduced | atrial diameter [1, 3]: significantly reduces | left atrium area [1, 3]: decreases the left atrium area | ventricular diameter (LVED diameter) [1, 3]: significantly reduces | dilatation of left atrium (left atrium (LA) area) [1, 4]: prevent the dilatation of left atrium | ventricular diameter (LVED diameter) [1, 4]: do not impact | ventricular function (fractional shortening) [1, 4]: do not impact | AF duration (paroxysmal AF; administered 1 month post I/R in rats with dilated atria): tends to decrease AF duration | duration of episode of paroxysmal AF (paroxysmal AF; eight weeks post I/R): decreases the duration of this episode of paroxysmal AF to the control values
